Data: patent US10874752B2, “MIBG analogs and uses thereof” (Board of Regents of The University of Nebraska, priority 2015, dated 2020)

Experiments:
[1] = Stability in human serum (HPLC of extracts); format: in vitro ADME; settings: up to 24 h, ambient temperature or 37° C.
Protocol: (§1) Incubations: into a solution (1980 μL) of serum (mouse, human), buffer or cells media, a sample of (17a), (185-390 kBq) in 15-20 μL of 25% EtOH/PB (100 mM, pH 6.1) was added; the resulting mixture was briefly vortexed and kept (up to 24 h) at ambient temperature or inside the incubator (37° C./˜5% CO2). At each time point, a volume of 1 mL was withdrawn, the extract of sample prepared and analyzed by HPLC.
(§2) Preparation of extracts: a sample (1 mL) from each incubated mixture with compound (17a) was treated with MeCN (1 mL), vortexed, and centrifuged (2,000 rpm, 15 min). The supernatant was removed and the radioactivity measured. Aliquots of supernatant (250-500 μL) were acidified to pH˜6 with 0.05 N TFA (2-8 μL). The excess of MeCN was evaporated with a stream of nitrogen and water (100 μL) added. A mixture was passed through a 0.2μ filter and each sample (˜100 μL, 95-185 kBq) injected on HPLC system.
(§3) HPLC analysis of extracts: continued on Columbus C18 100 Å (5 μm, 4.6×250 mm) column; eluted at 0.8 mL/min with a linear gradient of MeCN from 0 to 95% over 60 min and 95% MeCN was kept for a period of further 20 min, detecting the radioactivity (Bioscan NaI(T)). Both solvents contained 0.07% TFA (v/v).

[2] = Stability in mouse serum (HPLC of extracts); format: in vitro ADME; settings: up to 24 h, ambient temperature or 37° C.
Protocol: as §1, §2, §3

[3] = cited from earlier work
SK-N-SH cells = test: Uptake by SK-N-SH cells competed by MIBG; format: cell-based, human; settings: competition with MIBG (FIG. 16)
SK-N-SH NB cells = test: Subcellular distribution of 125I in SK-N-SH NB cells; format: cell-based, human; settings: SK-N-SH NB cells exposed at 80 kBq/mL for 1 h, harvested 24 h later
Description: (§4) Conjugate 17b was used for further testing. […] All drugs were designed so that they produce either 5-radioiodo-2′-deoxyuridine [RIUdR] or its 5′-monophosphate. Both metabolites can participate in the DNA synthesis allowing deposits of high LET radiation directly within the DNA structure. RIUdR, incorporated into the DNA of cancer cells in place of thymidine, is retained there for the life of the cell. It is extraordinarily lethal when labeled with Auger-electron-emitting radioiodines, which produce a cascade of monoenergetic electrons known as conversion and Auger electrons. These electrons deposit their energy within a tiny sphere around the decaying atom, i.e., the effective distance of Auger electrons is less than the diameter of the cancer cell nucleus. As a result, their cytotoxicity is dependent on the intranuclear localization, i.e., within the DNA or immediate vicinity of the DNA. Radiotoxicity of several reagents was tested in SK-N-SH cells. Tested drugs eradicate NB cells more efficiently than MIBG.

human NB SK-N-SH cells = test: Radiotoxicity, clonogenic assay in SK-N-SH cells; format: cell-based
Description: as §4
FIG. 14A-C show results of a pilot radiotoxicity study comparing the reproductive integrity of colonies of human NB SK-N-SH cells treated with conjugate 17b (radiolabeled with ^125I) and ^125IMIBG at 37 kBq/mL, two weeks after treatment.

SMILES: N=C(N)NCCC(=O)OC[C@H]1O[C@@H](n2cc([125I])c(=O)[nH]c2=O)C[C@@H]1O [17a, 5-[^125I]-Iodo-5′-O-propionylguanidino-2′-deoxyuridine]
- stability in human serum [1]: limited
- stability in mouse serum [2]: limited

SMILES: N=C(N)NCc1cccc([131I])c1 [^131IMIBG, ^131I-metaiodobenzylguanidine]
- long-term survivors developing thyroid disorders ([3]; long-term survivors treated with 131IMIBG): over 80%
- maximum tolerated dose ([3]; patients with neuroblastoma): > 600 MBq/kg

SMILES: N=C(N)NCCCCCC(=O)OC[C@H]1O[C@@H](n2cc([125I])c(=O)[nH]c2=O)C[C@@H]1O [conjugate 17b, 5-[^125I]-Iodo-5′-O-hexanoylguanidino-2′-deoxyuridine]
- uptake by SK-N-SH cells (SK-N-SH cells): competed by MIBG
- subcellular distribution of 125I (SK-N-SH NB cells): All ^125I is associated with the DNA fraction
- retention within the cell (human NB SK-N-SH cells): trapped within the cell
- radiotoxicity (reproductive integrity of colonies) (human NB SK-N-SH cells; 37 kBq/mL, two weeks after treatment, compared with 125IMIBG): far more radiotoxic
- cells receiving a lethal dose of radiation, clonogenic assay (human NB SK-N-SH cells; 1 h with the drug, compared with 125IMIBG): more cells receive a lethal dose of radiation
